Assay results from ChEMBL document CHEMBL3351771, “Development of inhibitors of the 2C-methyl-D-erythritol 4-phosphate (MEP) pathway enzymes as potential anti-infective agents” (J Med Chem, 2014).
Values after ≈ are worked out from the molar mass of the structure shown.

Key:
[1] = Inhibition of Escherichia coli IspE
Escherichia coli [2] = test: Inhibition of Escherichia coli IspF at 500 uM after 30 mins preincubation
Escherichia coli [3] = test: Inhibition of Escherichia coli IspF at 500 uM
Aquifex aeolicus = test: Inhibition of Aquifex aeolicus IspH assessed as residual activity at 1 mM
[4] = Inhibition of tomato IspE; parameters: species or system Solanum lycopersicum
[5] = Inhibition of Plasmodium falciparum Dxr
[6] = Inhibition of Plasmodium falciparum IspF
[7] = Inhibition of Mycobacterium tuberculosis IspF
[8] = molecular target: T1, 1-deoxy-D-xylulose-5-phosphate synthase (Escherichia coli O127:H6 (strain E2348/69 / EPEC), UniProt B7UJP3); test: Inhibition of Escherichia coli DXS
T1 sequence (B7UJP3 whole entry): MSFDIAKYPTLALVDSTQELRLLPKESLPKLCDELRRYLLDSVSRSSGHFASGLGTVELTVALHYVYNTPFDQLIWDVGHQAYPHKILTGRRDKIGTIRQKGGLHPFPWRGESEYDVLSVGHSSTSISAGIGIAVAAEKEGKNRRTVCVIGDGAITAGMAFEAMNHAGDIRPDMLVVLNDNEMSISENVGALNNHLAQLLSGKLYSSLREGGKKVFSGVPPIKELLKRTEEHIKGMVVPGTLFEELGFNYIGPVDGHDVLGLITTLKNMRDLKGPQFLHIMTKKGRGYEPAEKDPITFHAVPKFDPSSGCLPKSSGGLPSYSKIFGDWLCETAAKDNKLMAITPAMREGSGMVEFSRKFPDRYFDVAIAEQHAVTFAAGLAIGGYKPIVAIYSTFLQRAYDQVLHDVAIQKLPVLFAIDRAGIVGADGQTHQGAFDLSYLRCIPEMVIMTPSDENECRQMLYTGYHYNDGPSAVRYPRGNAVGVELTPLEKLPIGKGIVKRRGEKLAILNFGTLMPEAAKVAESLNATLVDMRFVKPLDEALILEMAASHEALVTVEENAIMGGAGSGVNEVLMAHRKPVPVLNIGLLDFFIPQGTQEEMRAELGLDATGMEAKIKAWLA

[9] = Inhibition of Salmonella enteric DXS; parameters: species or system Salmonella enterica
[10] = molecular target: T2, 1-deoxy-D-xylulose-5-phosphate synthase (Mycobacterium tuberculosis, UniProt P9WNS3); test: Inhibition of Mycobacterium tuberculosis DXS
T2 sequence (P9WNS3 whole entry): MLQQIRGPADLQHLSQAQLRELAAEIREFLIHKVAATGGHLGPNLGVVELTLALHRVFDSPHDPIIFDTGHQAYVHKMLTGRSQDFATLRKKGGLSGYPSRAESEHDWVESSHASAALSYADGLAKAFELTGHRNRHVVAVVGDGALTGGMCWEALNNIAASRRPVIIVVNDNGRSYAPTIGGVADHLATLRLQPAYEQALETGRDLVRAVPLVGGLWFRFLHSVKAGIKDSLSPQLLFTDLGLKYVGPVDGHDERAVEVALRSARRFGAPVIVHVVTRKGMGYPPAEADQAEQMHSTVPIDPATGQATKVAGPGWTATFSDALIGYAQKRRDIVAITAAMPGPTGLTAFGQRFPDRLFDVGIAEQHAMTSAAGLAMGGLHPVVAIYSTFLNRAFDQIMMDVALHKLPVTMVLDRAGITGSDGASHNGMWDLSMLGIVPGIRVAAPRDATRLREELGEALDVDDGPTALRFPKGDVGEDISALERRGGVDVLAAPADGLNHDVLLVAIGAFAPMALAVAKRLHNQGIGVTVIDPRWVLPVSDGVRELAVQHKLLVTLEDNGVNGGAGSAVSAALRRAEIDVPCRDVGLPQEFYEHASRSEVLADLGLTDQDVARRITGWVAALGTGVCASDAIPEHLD

[11] = Inhibition of Yersinia pestis DXS
[12] = molecular target: T3, 1-deoxy-D-xylulose-5-phosphate synthase (Deinococcus radiodurans (strain ATCC 13939 / DSM 20539 / JCM 16871 /LMG 4051 / NBRC 15346 / NCIMB 9279 / R1 / VKM B-1422), UniProt Q9RUB5); test: Inhibition of Deinococcus radiodurans DXS
T3 sequence (Q9RUB5 whole entry): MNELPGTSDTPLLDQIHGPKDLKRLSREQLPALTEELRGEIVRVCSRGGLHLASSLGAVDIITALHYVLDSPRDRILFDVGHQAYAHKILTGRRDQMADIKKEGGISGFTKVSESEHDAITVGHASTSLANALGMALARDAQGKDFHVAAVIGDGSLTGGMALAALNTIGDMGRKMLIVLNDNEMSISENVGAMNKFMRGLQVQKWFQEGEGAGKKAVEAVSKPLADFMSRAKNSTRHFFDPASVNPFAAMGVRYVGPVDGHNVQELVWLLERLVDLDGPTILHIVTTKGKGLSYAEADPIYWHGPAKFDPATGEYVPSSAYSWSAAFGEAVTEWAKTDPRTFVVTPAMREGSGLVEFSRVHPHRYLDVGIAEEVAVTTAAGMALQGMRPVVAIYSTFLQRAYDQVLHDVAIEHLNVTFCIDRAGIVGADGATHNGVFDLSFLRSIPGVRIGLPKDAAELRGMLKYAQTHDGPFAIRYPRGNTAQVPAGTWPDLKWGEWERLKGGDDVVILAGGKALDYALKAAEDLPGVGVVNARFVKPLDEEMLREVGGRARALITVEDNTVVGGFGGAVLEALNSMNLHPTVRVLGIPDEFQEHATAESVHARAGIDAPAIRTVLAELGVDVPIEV

[13] = Inhibition of Escherichia coli IspD
[14] = Inhibition of Plasmodium falciparum NF54 IspE
[15] = Inhibition of Arabidopsis thaliana DXS
[16] = Inhibition of Mycobacterium smegmatis IspD; parameters: species or system Mycolicibacterium smegmatis
[17] = Inhibition of Aquifex aeolicus IspE
[18] = molecular target: T4, 1-deoxy-D-xylulose-5-phosphate synthase (Haemophilus influenzae (strain 86-028NP), UniProt Q4QKG6); test: Inhibition of Haemophilus influenzae DXS
T4 sequence (Q4QKG6 whole entry): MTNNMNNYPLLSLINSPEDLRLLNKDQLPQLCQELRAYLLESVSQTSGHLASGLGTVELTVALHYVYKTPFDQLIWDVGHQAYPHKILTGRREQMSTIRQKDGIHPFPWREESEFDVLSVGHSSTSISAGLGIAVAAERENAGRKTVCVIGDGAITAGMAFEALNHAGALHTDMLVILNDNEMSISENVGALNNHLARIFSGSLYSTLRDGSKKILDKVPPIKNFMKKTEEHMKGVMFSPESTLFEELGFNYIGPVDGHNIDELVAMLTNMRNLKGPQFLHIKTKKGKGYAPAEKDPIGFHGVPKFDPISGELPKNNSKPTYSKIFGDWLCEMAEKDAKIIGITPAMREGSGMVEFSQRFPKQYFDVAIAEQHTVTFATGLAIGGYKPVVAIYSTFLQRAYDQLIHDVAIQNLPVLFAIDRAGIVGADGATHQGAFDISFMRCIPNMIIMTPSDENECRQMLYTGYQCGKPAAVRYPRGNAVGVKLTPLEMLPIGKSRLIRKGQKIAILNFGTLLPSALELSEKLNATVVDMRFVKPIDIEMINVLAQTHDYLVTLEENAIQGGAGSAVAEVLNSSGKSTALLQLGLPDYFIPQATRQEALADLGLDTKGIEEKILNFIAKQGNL

[19] = Inhibition of Aquifex aeolicus IspH
[20] = molecular target: T3, 1-deoxy-D-xylulose-5-phosphate synthase; test: Binding affinity to Deinococcus radiodurans DXS
[21] = molecular target: T2, 1-deoxy-D-xylulose-5-phosphate synthase; test: Binding affinity to Mycobacterium tuberculosis DXS
Haemophilus influenzae = test: Antimicrobial activity against Haemophilus influenzae; type: functional
[22] = Inhibition of Chlamydomonas DXS
[23] = Inhibition of Escherichia coli IspG
[24] = Inhibition of Arabidopsis thaliana IspD
Escherichia coli [25] = test: Induction of Escherichia coli IspF assessed as fold increase in activity at 500 uM
[26] = test system: Mycobacterium tuberculosis; test: Antimicrobial activity against Mycobacterium tuberculosis; type: functional, organism-based
[27] = molecular target: T5, 1-deoxy-D-xylulose 5-phosphate reductoisomerase (Mycobacterium tuberculosis, UniProt P9WNS1); test: Inhibition of Mycobacterium tuberculosis Dxr
T5 sequence (P9WNS1 whole entry): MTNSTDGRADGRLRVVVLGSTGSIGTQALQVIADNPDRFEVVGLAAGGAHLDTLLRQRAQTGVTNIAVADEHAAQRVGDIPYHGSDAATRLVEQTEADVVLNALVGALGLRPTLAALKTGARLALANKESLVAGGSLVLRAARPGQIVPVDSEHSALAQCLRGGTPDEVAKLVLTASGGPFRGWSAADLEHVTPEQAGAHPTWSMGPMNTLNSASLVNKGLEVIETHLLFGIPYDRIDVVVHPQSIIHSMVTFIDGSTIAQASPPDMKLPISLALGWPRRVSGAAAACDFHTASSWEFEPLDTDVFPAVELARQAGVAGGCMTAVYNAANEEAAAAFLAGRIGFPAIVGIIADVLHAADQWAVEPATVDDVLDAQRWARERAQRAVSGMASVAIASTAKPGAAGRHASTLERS

Nc1nc(=O)n(C2CCCS2)cc1C#CCNS(=O)(=O)C1CC1 (centres undefined)
IC50 [1]: 1.7 µM

COc1ccccc1-c1cnc(N)c(C#CCNS(=O)(=O)C2CC2)c1
IC50 [1]: 242 µM

C[C@@](CO)(OP(=O)(O)O)[C@H](O)COP(=O)(O)CP(=O)(O)OC[C@H]1O[C@@H](n2ccc(N)nc2=O)[C@H](O)[C@@H]1O
inhibition (Escherichia coli [2]): 37%
inhibition (Escherichia coli [3]): 0%

C/C(=C/COC(=O)Nc1ccc(C)cc1)CO
Activity (Aquifex aeolicus): 62%

NC1=N/C(=N\NC(=O)c2cc(Cl)ccn2)c2ccc3ccccc3c21
IC50 [4]: 7.2 µM

CN(O)C(=O)CCC(c1ccccc1)P(=O)(O)O (centres undefined)
IC50 [5]: 0.0031 µM

CCOC(=O)C1=C(C)N=c2s/c(=C\c3cc(Br)c(O)c(Br)c3)c(=O)n2C1C1CCCS1 (centres undefined)
IC50 [6]: 9.6 µM
IC50 [7]: 6.1 µM

CCCCOP(=O)(O)C(C)=O
Ki [8]: 5.6 µM
Ki [9]: 8.4 µM
Ki [10]: 4 µM
Ki [11]: 7.5 µM

O=c1c2ccccc2nc(-c2cccnc2)n1-c1ccc(Br)cn1
IC50 [1]: 3 µM

Cc1ncc(Cc2csc(CCO)c2C)c(N)n1 [3-DEAZATHIAMINE]
IC50 [12]: 430 µM

C/C(=C/CONS(=O)(=O)NC(=O)OC(C)(C)C)CO
Activity (Aquifex aeolicus): 61%

O=P(O)(O)OC[C@@H](O)[C@@H](O)CO
IC50 [13]: 1360 µM

CN(C)c1ccnc(C(=O)N/N=C2\N=C(N)c3c2ccc2ccccc32)c1
IC50 [14]: 0.018 µM

O=C(O)c1ccc(-c2ccc(/C=N/NC3Nc4ccccc4S3)o2)cc1 (centres undefined)
IC50 [15]: 33 µM

FC(F)(F)Oc1cccc(Cn2cnc3ccccc32)c1
IC50 [12]: 595 µM

CCCCCCCCCCCC[N+](C)(C)CCOc1ccccc1.[Br-] [DOMIPHEN BROMIDE]
IC50 [16]: 33 µg/mL

Nc1nc(=O)n(C2CCCS2)cc1C#CCNS(=O)(=O)C(=O)[C@@H](O)[C@@H](O)[C@H](O)[C@H](O)CO (some centres undefined)
IC50 [1]: 407 µM
IC50 [17]: > 500 µM

CC(=O)P(=O)(O)OCc1ccccc1
Ki [8]: 10.4 µM

COc1ccc(-c2onc(C(F)(F)F)c2-c2ccc(Br)cc2)c(O)c1
IC50 [15]: 32 µM

CC(C)(C(=O)O)C(=O)N(O)Cc1ccccc1Cl
IC50 [18]: 1 µM

COC(c1cn(CC#Cc2cn(C3CCCS3)c(=O)nc2N)c(C2CCCCC2)n1)C(F)(F)F (centres undefined)
IC50 [1]: 9.9 µM

C#CCCOP(=O)(O)OP(=O)(O)O [BUT-3-YNYL DIPHOSPHATE]
IC50 [19]: 0.45 µM

COc1cc(C#Cc2ccc(C#CCOc3cccnc3)cn2)nc(N)n1
IC50 [1]: 8.7 µM

Cc1[nH]c2ccccc2c1C(Nc1ccccn1)c1ccccc1O (centres undefined)
IC50 [1]: 19 µM

Cc1ncc(C[n+]2csc(CCO[P@](=O)(O)OP(=O)(O)O)c2C)c(N)n1
Kd [20]: 0.114 µM
Kd [21]: 3.1 µM

COCCS(=O)(=O)NCC#Cc1cn(C2CCCS2)c(=O)nc1N (centres undefined)
IC50 [1]: 30 µM
IC50 [17]: > 500 µM

CC(C)(CO)C(=O)N(O)Cc1ccccc1Cl
MIC (Haemophilus influenzae): 64 µg/mL (≈ 248 µM)
IC50 [18]: 3.1 µM

Oc1csc(Nc2nccs2)n1
IC50 [1]: 160 µM

Nc1nc(=O)n(C2CCCO2)cc1C#CCNS(=O)(=O)C1CC1 (centres undefined)
IC50 [1]: 2 µM

O=P(O)(O)OP(=O)(O)OCc1cccnc1
IC50 [19]: 38 µM

NC1=N/C(=N\NC(=O)c2ccccn2)c2ccc3ccccc3c21
IC50 [14]: 0.058 µM

CC1(C)C(=O)ON(Cc2ccccc2Cl)C1=O [KETOCLOMAZONE]
IC50 [22]: 100 µM
MIC (Haemophilus influenzae): 12.5 µg/mL (≈ 49.3 µM)
Ki [18]: 23.3 µM

C#CCOP(=O)(O)OP(=O)(O)O [PROP-2-YNYL DIPHOSPHATE]
IC50 [23]: 0.75 µM

Oc1c(Cc2ccccc2)c(Cl)cc2ncnn12
IC50 [24]: 0.14 µM

COc1ccc2nc(NC(=O)c3cc(-c4ccccc4O)n[nH]3)sc2c1
IC50 [24]: 1.8 µM

Nc1nc(=O)n(C2CCCS2)cc1S(=O)(=O)c1ccccc1 (centres undefined)
IC50 [1]: 220 µM
IC50 [17]: > 500 µM

CCOP(=O)(O)C(C)=O
Ki [8]: 6.7 µM

C[C@@](CO)(OP(=O)(O)O)[C@H](O)COP(=O)(O)CP(=O)(O)O
fold change (FC) (Escherichia coli [25]): 1.6

O=C(CCCc1ccccc1)N(O)CCCP(=O)(O)O
IC50 [26]: 17.8 µM
IC50 [27]: 17.8 µM

N#Cc1cnn2c(O)c(Cc3ccccc3)c(Cl)cc12
IC50 [24]: 0.035 µM

O=P(O)(O)OP(=O)(O)OCCc1cccnc1 [PYRIDIN-3-YL-ETHYL-DIPHOSPHATE]
IC50 [19]: 9.1 µM
